Measured values published in patent publication US20040120954A1, “Regulation of mt1-mmp activity” (priority 2000, published 2004).

How the values were obtained:
[1] = system: tyrosine residues in the cytoplasmic domain of NGFR; assay: Tyrosine phosphorylation of ectodomain/NGFR chimeras expressed in COS1 cells (homophilic complex formation); assay type: cell-based; conditions: FIG. 9
Protocol: Cell lysate samples were subjected to separation on SDS-PAGE, followed by a transfer of the proteins in the gel to nitrocellulose membranes (Hybond-ECL, Amersham Pharmacia Biotech, Inc.). After blocking with a solution of 10% skim milk dissolved in TBS (20 mM Tris-HCl buffer, pH 7.5 containing 150 mM NaCl), the membrane was exposed to a monoclonal anti-FLAG M2 antibody (3 μg/ml) for detecting FLAG-tagged MT1-MMP and its mutants. In order to visualize the immunoreactive bands, the membrane was further exposed to an alkaline phosphatase-conjugated goat anti-mouse IgG antibody. For the purpose of detecting a phosphotyrosine residue in chimera proteins, a monoclonal anti-phosphotyrosine antibody, PY20 (1 μg/ml) was used.
By utilizing the above principle, a chimeric protein is first constructed consisting of the ectodomain of MT1-MMP and the transmembrane (TM) and cytoplasmic (CP) domains of NGFR (FIG. 8) in order to test for direct complex formation. When the ectodomain of this chimeric protein forms a homophilic complex in a similar manner, tyrosine residues in the cytoplasmic domain will be phosphorylated.
A FLAG-tagged MT1-MMP (MT1-F) expression construct as used herein was as described in Itoh, Y. et al., J. Biol. Chem. 274: 34260-34266, 1999. In addition, MT1-F was used as a template to generate cDNAs for MT1Cat-F (Δ Ile^318-Gly^535) and MT1PEX-F (ΔTyr^112-Pro^312) by the PCR extension method of Ho et al. (Ho, S. N. et al., Gene, 77: 51-59, 1989). The cDNA was subcloned into pSG5 (Stratagene, CA, USA). Chimera mutants of the ectodomain of MT1-F, MT1Cat-F, MT1PEX-F or MT4PEX-F, with the transmembrane (TM)/cytoplasmic (CP) domain of NGFR were also generated by the PCR method in a similar manner, and subcloned into pSG5. The MT1-MMP-derived sequence corresponded to Met^1 through Asp^515 of MT1-MMP, while the NGFR-derived sequence corresponded to Glu^384 through Gly^790 of NGFR (GenBank™ accession number M23102). The other chimera mutants were also composed from these corresponding sequences. All the PCR-generated fragments were confirmed by DNA sequencing.
Expression vectors for the protein were transfected into COS1 cells, using FuGENE6™ (Roche Molecular Biochemicals) according to the manufacturer's instructions. COS1 cells were seeded in 6-well plates at 1.5×10^5/well at 16 hrs before the transfection was performed. The COS1 cells were maintained in a HAM F-12 medium or DMEM containing 10% fetal bovine serum in a humidified incubator at 37° C. At 48 hrs after the transfection, the cells were collected for use in the experiments.
To monitor the dimer formation of the enzyme in the cells, another approach to detect the molecular interactions was executed. […]

proMMP-2 = target: T1, proMMP-2 (Homo sapiens, UniProt P08253); assay: ProMMP-2 binding assay on transfected COS1 cells; assay type: cell-based; conditions: COS1 cells expressing the mutant (FIG. 21)
T1 construct: made in house; host or cells: HighFive insect cells infected with recombinant baculovirus; purified from culture supernatant
T1 sequence (P08253 30-660 limits assumed): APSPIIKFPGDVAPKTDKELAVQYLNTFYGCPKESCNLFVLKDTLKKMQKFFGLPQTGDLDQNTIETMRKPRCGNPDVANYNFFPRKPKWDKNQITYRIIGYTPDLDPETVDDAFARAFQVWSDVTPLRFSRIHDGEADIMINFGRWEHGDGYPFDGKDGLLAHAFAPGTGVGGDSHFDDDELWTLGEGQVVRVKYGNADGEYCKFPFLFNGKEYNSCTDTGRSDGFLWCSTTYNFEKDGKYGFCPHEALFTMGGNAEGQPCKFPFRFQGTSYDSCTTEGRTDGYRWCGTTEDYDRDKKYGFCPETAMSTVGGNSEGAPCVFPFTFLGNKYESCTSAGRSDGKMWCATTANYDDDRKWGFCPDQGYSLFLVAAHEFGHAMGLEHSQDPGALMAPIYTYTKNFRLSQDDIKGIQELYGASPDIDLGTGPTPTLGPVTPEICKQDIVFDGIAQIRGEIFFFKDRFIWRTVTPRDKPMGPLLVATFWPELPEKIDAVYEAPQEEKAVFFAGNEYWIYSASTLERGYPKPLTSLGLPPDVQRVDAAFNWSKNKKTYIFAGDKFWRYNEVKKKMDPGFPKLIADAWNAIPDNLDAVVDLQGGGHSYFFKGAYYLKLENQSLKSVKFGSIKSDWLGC
Protocol: Transfected COS1 cells were cultured in a 24-well plate (0.2×10^4/well). Forty-eight hours after transfection, the cells were washed three times with serum-free DMEM, and incubated with purified proMMP-2 (2 μg/ml) in the serum-free DMEM at 25° C. for 1 hr. The cells were then washed three times with serum-free DMEM containing 5% dimethyl sulfoxide (DMSO) to remove free proMMP-2, and lysed in 50 μl of a non-reducing SDS-loading buffer. MMP-2 bound to the cells was analyzed by gelatin zymography.

MT1-MMP [2] = assay: Activation of proMMP-2 by MT1-MMP on the cell surface of transfected cells (gelatin zymography); assay type: cell-based, human; conditions: transfected COS1 cells, exogenous purified proMMP-2 (FIGS. 2, 20)
Protocol: Gelatin zymography was conducted using an SDS-polyacrylamide gel (PAGE) containing gelatin (0.8 mg/ml) (Itoh, Y. et al., J. Biol. Chem., 273: 24360-24367, 1998). The samples were mixed with a SDS-PAGE loading buffer without a reducing agent and subjected to electrophoretic analysis at room temperature. Enzyme activity was visualized as a negative staining area with Coomassie Brilliant Blue R-250.
The expression construct for FLAG epitope ([…]-tagged MT1-MMP (MT1-F) described in Itoh, Y. et al., J. Biol. Chem., 274: 34260-34266, 1999 was used as a template to generate cDNA for MT1Cat-F (A Ile^318-Gly^535) by the PCR extension method of Ho et al., (Ho, S. N. et al., Gene, 77: 51-59, 1989). The cDNA was subcloned into pSG5 (Stratagene, CA, USA). The PCR-generated fragments were confirmed by DNA sequencing. COS1 cells were transfected with the expression vector for MT1-MMP mutant; MT1-F or MT1Cat-F, or a vector alone (Mock). Expression vectors for each protein were transfected using FuGENE6™ (Roche Molecular Biochemicals) according to the manufacturer's instructions. COS1 cells were seeded in 6-well plates at 1.5×10^5/well at 16 hrs before the transfection was performed. The COS1 cells were maintained in a HAM F-12 medium or DMEM containing 10% fetal bovine serum in a humidified incubator at 37° C. At 48 hrs after the transfection, the cells were collected for use in the experiments. The cells were incubated in the presence of purified proMMP-2 in a serum-free medium (0.25 μg/ml) at 37° C. for 18 hrs. Cell lysates were tested for the expression of the mutants, while culture supernatants were tested for the activation of proMMP-2.
To investigate roles of dimer formation upon the activation of proMMP-2, MT1-F was introduced into COS1 cells together with MT1PEX-F. The co-introduced cells were reacted with exogenously added proMMP-2. Thus, COS1 cells were co-transfected with the MT1-F and MT1PEX-F at indicated DNA amount ratios. Next, purified proMMP-2 (0.25 μg/ml) in a serum-free medium was reacted with the resulting cells at 37° C. for 18 hrs. MMP-2 in the culture supernatant was analyzed by gelatin zymography, and the cell lysates were subjected to Western blotting analysis using a monoclonal anti-FLAG M2 antibody.
(§1) Next, to determine if MT1PEX-F affects the catalytic activity of MT1-MMP on the cell surface or not, tests for gelatin degrading activity and binding capacity to TIMP-2 were conducted using cells transfected in the same incubator. As shown in FIGS. 12 through 14, CHO-K1 cells were transfected with an expression vector for MT1-F, MT1-F/MT1PEX-F or MT1Cat-F, or a vector alone (Mock). The cells were then treated with trypsin, and separately seeded to: DQ™ gelatin-coated cover slips for testing the proteolytic activity (FIG. 13); and 24-well plates for TIMP-2 binding assay (FIG. 12) and for the activation of proMMP-2 (FIG. 14). Transfected cells on the DQ™ gelatin-coated cover slip as shown in FIG. 13 were incubated in a medium at 37° C. for 18 hrs, and the generated fluorescence was analyzed using confocal microscopy. Transfected cells on the 24-well plate as shown in FIG. 12 were incubated with 25 nM ^125I-labeled TIMP-2 in the presence or absence of BB-94 (50 μM) at 0° C. for 1 hr. MT1-MMP specific binding was calculated by subtracting the datum obtained in the presence of BB-94 (50 μM) from each datum derived from the corresponding experiments. […] DQ™ gelatin is a fluorescence-quenched gelatin, which fluoresces upon proteolytic cleavage. […]

MT1-MMP [3] = assay: In situ gelatin degrading assay (DQ gelatin or Alexa488-conjugated gelatin); assay type: cell-based, human; conditions: DQ gelatin; CHO-K1 (FIG. 13) or COS1 cells (FIG. 22)
Protocol: Two different in situ gelatin degrading assays were performed. One used DQ™ gelatin (Molecular Probes, Inc., OR, USA). DQ gelatin is a fluorescence-quenched gelatin substrate, and will fluoresce upon proteolytic cleavage. Glass cover slips were coated with 5% DQ™ gelatin in a 10 mg/ml unlabeled gelatin solution, and dried. Transfected cells were cultured on the cover slip in a humidified chamber for 16 hrs. The cells were then fixed with 3% para-formaldehyde and the degraded areas were visualized as those showing fluorescence.
The other assay used Alexa488-conjugated gelatin made with an Alexa488-labeling kit (Molecular Probes). The bottom surfaces of 4-well chamber slides (Nunc) were coated with Alexa488-conjugated gelatin according to the method of Yana, I. and Weiss, S. J., Mol. Biol. Cell, 11, 2387-2401, 2000. Transfected COS1 cells were cultured in the chamber slides for 16 hrs in a humidified culture incubator. The cells were then fixed with 3% para-formaldehyde in PBS, and the degraded area was analyzed under a fluorescence microscope. The degraded area was visualized as a dark, non-fluorescent area. Fluorescence images were analyzed using confocal microscopy (BioRad).
as §1, with “experiments. Identically transfected cells on the 24-well plate as shown in FIG. 14 were subjected to the reaction with purified proMMP-2 in a serum-free medium at 37° C. for 18 hrs. The cells and culture supernatants were respectively subjected to Western blotting analysis using a monoclonal anti-FLAG M2 antibody, and gelatin zymography analysis.” for “experiments.”

ternary complex formation with TIMP-2/proMMP-2 on the cell surface (proMMP-2)	Substance	tyrosine phosphorylation of the chimera (Anti-PY) [1]	activation of proMMP-2 by cells expressing the mutant (MT1-MMP [2])	gelatin degrading (proteolytic) activity of cells expressing the mutant (MT1-MMP [3])
–	MT1-F/NGFR: Chimera of the ectodomain of MT1-F with the transmembrane/cytoplasmic domain of NGFR	phosphorylated	–	–
can form a ternary complex	MT1-MT4PEX: MT1-MMP in which Cys319 to Cys508 is replaced with Cys336 to Cys527 of mouse MT4-MMP	–	did not activate proMMP-2	showed proteolytic activity
–	MT1Cat-F/NGFR: Chimera of the ectodomain of MT1Cat-F with the transmembrane/cytoplasmic domain of NGFR	extremely low	–	–
–	MT1PEX-F/NGFR: Chimera of the ectodomain of MT1PEX-F with the transmembrane/cytoplasmic domain of NGFR	strongly phosphorylated	–	–
–	MT4PEX-F/NGFR: Chimera of the ectodomain of MT4PEX-F with the transmembrane/cytoplasmic domain of NGFR	extremely low	–	–
